In patent publication US12305197B2, “Proliferation method” (Kao Corporation, priority 2019, dated 2025):

Columns and labels:
[1] = system: H3N2 influenza virus strain (A/Memphis/l/1971); assay type: cell-based
[2] = system: H3N2 influenza virus strain (A/Memphis/l/1971); assay type: cell-based; remark: listed apart in the source
[3] = system: influenza B virus strain (B/Lee/1940); assay type: cell-based
[4] = system: H1N1pdm influenza virus strain (A/Shizuoka/830/2009); assay type: cell-based
[5] = system: H1N1 (laboratory strain) influenza virus strain; assay type: cell-based, influenza A virus
[6] = system: H1N1pdm influenza virus strain (A/Shizuoka/830/2009); assay type: cell-based; remark: listed apart in the source
[7] = system: influenza B virus strain (B/Lee/1940); assay type: cell-based; remark: listed apart in the source
[8] = system: H1N1 (laboratory strain) influenza virus strain; assay type: cell-based, influenza A virus; remark: listed apart in the source
[9] = system: H1N1 influenza virus strain (A/Puerto Rico/8/1934); details: in vivo

Row | Substance | amount of influenza virus (virus proliferation capacity) by focus assay [1] | HA titer of influenza virus [2] | HA titer of influenza virus, low Bax inhibitor concentration [2] | HA titer of influenza virus, time-dependent [2] | HA titer of influenza B virus [3] | amount of influenza virus (virus proliferation capacity) by focus assay [4] | HA titer of influenza virus, low Bax inhibitor concentration [5] | HA titer of influenza virus [6] | HA titer of influenza virus, low Bax inhibitor concentration [6] | HA titer of influenza virus, time-dependent [6] | amount of influenza B virus (virus proliferation capacity) by plaque assay [7] | amount of influenza virus (virus proliferation capacity) by focus assay, low concentration [1] | amount of influenza virus (virus proliferation capacity) by focus assay, low concentration [8] | amount of influenza virus (virus proliferation capacity) by focus assay, low concentration [4] | increase of viral titer versus control group [9] [times] | viral titer compared with 10-fold control group (5×10^3 EID50/chicken egg) [9]
1 | Val-Pro-Met-Leu-Lys (VPMLK) [SEQ ID NO: 1] | exhibits the effect of enhancing the virus proliferation capacity | increases | increases | increases the HA titer of the influenza virus strains in the early stages of the culture | increases | exhibits the effect of enhancing the virus proliferation capacity | increases | increases | increases | increases the HA titer of the influenza virus strains in the early stages of the culture | exhibit the effect of enhancing the virus proliferation capacity |  |  |  |  | 
2 | Pro-Met-Leu-Lys-Glu (PMLKE) [SEQ ID NO: 2] |  |  | increase in the HA titer of the influenza virus was also observed |  | increases |  | increase in the HA titer of the influenza virus was also observed |  | increase in the HA titer of the influenza virus was also observed |  | exhibit the effect of enhancing the virus proliferation capacity | enhances the virus proliferation capacity | enhances the virus proliferation capacity | enhances the virus proliferation capacity |  | 
3 | Val-Ser-Ala-Leu-Lys (VSALK) [SEQ ID NO: 7] |  |  |  |  |  |  |  |  |  |  |  |  |  |  | 1.27 | higher
